Experiments:
Assay type in all cases: cell-based, human
β-catenin = experiment: Western blot of β-catenin; details: G361, SK-MEL-2 cells pre-treated 3 hours with GSK3β inhibitor, then 20 μM 1-benzyl I3C 24 hours
Description: The western blots employed the following primary antibodies: mouse anti-MITF-M (Thermo-scientific), mouse anti-HSP 90 (BD Biosciences), mouse anti-CDK2, rabbit anti-CDK4, rabbit anti-CDK-6, mouse anti-rabbit BRAF, goat anti-LEF-1, rabbit anti-AXIN, mouse anti-BCL2, (Santa Cruz), rabbit anti-P21, mouse anti-Cyclin D1, rabbit anti-MEK-p, rabbit anti-MEK1/2, rabbit anti-GSK3β rabbit anti-LRP6, rabbit anti-LRP6-phospho (Cell signaling), mouse anti-β-catenin (Invitrogen).

CDK4 = experiment: Western blot of CDK4; details: G-361 cells, 48 hours; 200 μM I3C, 10 μM Vemurafenib or 10 μM U0126
Protocol: (§1) Western Blot analyses of samples electrophoretically fractionated on 12% acrylamide gels were carried out as previously described (Wagle et al., J. Clin. Oncol. 2011. 29(22):3085-3096; Nguyen et al., Chem. Biol. Interact. 2010. 186(3):255-266). Enhanced chemiluminescence (ECL) Lightening reagents were used to visualize the primary antibody bound protein bands in nitrocellulose membranes and the results captured on ECL Autoradiography Film (GE Healthcare, Piscataway, N.J.). The western blots employed the following primary antibodies: mouse anti-MITF-M (Thermo-scientific), mouse anti-HSP 90 (BD Biosciences), mouse anti-CDK2, rabbit anti-CDK4, rabbit anti-CDK-6, mouse anti-rabbit BRAF, goat anti-LEF-1, rabbit anti-AXIN, mouse anti-BCL2, (Santa Cruz), rabbit anti-P21, mouse anti-Cyclin D1, rabbit anti-MEK-p, rabbit anti-MEK1/2, rabbit anti-GSK3β rabbit anti-LRP6, rabbit anti-LRP6-phospho (Cell signaling), mouse anti-β-catenin (Invitrogen).

MITF-M = MITF-M protein levels in cultured melanoma cells (western blot, immunofluorescence); details: for MITF-M protein levels (western blot): G-361 cells, 48 hours, 200 μM I3C, 10 μM Vemurafenib or 10 μM U0126
Protocol: as §1

phosphorylated Erk/MAPK = experiment: Western blot of phosphorylated Erk/MAPK; details: G-361 cells, 48 hours; 200 μM I3C, 10 μM Vemurafenib or 10 μM U0126
Protocol: (§2) Western Blot analyses of samples electrophoretically fractionated on 12% acrylamide gels were carried out as previously described (Wagle et al., J. Clin. Oncol. 2011. 29(22):3085-3096; Nguyen et al., Chem. Biol. Interact. 2010. 186(3):255-266). […] The western blots employed the following primary antibodies: mouse anti-MITF-M (Thermo-scientific), mouse anti-HSP 90 (BD Biosciences), mouse anti-CDK2, rabbit anti-CDK4, rabbit anti-CDK-6, mouse anti-rabbit BRAF, goat anti-LEF-1, rabbit anti-AXIN, mouse anti-BCL2, (Santa Cruz), rabbit anti-P21, mouse anti-Cyclin D1, rabbit anti-MEK-p, rabbit anti-MEK1/2, rabbit anti-GSK3β rabbit anti-LRP6, rabbit anti-LRP6-phospho (Cell signaling), mouse anti-β-catenin (Invitrogen).

SK-MEL-2 cells = experiment: CCK-8 proliferation assay, SK-MEL-2; details: 48 hours
Protocol: […] Cells were treated with 20 μM 1-benzyl I3C every 24 hours for 72 hours and harvested at 24, 48 and 72 hours for western blot and flow cytometric analysis. Cells were treated with 20 μM LiCl or 10 μM BIO for 48 hours before harvesting them for western blots.
Subsequently inhibition of proliferation was assessed using Cell counting Kit-8 (Dojindo) as per the protocol in the user's manual. Briefly, 50 μl of the CCK-8 solution was added to each well along with 450 μl media and incubated for 2-3 hours. The absorbance was read at 450 nm and % inhibition was calculated for each condition standardizing DMSO to zero using the formula: [(100−Value of treatment/Value of DMSO treated control)×100]

phosphorylated MEK = experiment: Western blot of phosphorylated MEK; details: G361 and DM738 cells, 10 μM Vemurafenib, 24 hours
Protocol: as §2

Compound	rescue of 1-benzyl I3C induced downregulation of β-catenin, MITF-M, CDK2, BCl2 (β-catenin)	CDK4 protein levels (CDK4)	MITF-M protein levels (western blot) (MITF-M)	phosphorylated Erk/MAPK levels (phosphorylated Erk/MAPK)	antiproliferation in wild-type BRAF cells (SK-MEL-2 cells)	MEK-P levels (phosphorylated MEK)	sensitivity of MITF-M inhibition to Vemurafenib (MITF-M; SK-MEL-2 cells (wild-type BRAF), 10 μM Vemurafenib, 24 hours)
O=C1Nc2cc(Br)ccc2/C1=C1/Nc2ccccc2/C1=N\O [BIO, 6-bromoindirubin-3′-oxime]	significant rescue	–	–	–	–	–	–
[Cl-].[Li+] [LiCl, Lithium Chloride]	significant rescue	–	–	–	–	–	–
N#CC(=C(/N)Sc1ccccc1N)/C(C#N)=C(\N)Sc1ccccc1N [U0126, reference compound]	–	down regulated	down regulated	down regulated	–	–	–
Vemurafenib [reference compound]	–	down regulated	down regulated	down regulated	ineffective	downregulated MEK-P	not sensitive to Vemurafenib action

Source: patent publication US20180369195A1, “COMBINATION THERAPY FOR TREATMENT OF MELANOMA” (The Regents of the University of California, priority 2015, published 2018)
